Residues, ends and D or L forms follow the SMILES beside them. *: point of attachment. Cbz = O=C(OCc1ccccc1)*
Assays:
BIRC2 = BIRC2 (Homo sapiens, UniProt Q13490); test: Western blot of BIRC2 content in human T cells; details: MG132 10 μM with EV-3, 24 h
Experimental: All treatments were for 24 h.
All treatments were for 24 h. […] Plasmids expressing FLAG epitope-tagged versions of wild-type (WT) or the indicated cysteine-to-alanine mutants of BIRC2 (C45A) and BIRC3 (C28A) were co-transfected into primary human T cells with mCherry-expressing plasmid to control for transfection efficiency for 24 h. Cells were then treated with DMSO, EV-3 (10 μM), or AT-406 (1 μM) for 24 h and analyzed by anti-FLAG western blotting. […] (G) Quantitation of western blot data, where protein band intensity calculations were made using ImageJ software and represent the mean percentage of DMSO treated control±SEM; n=3 independent experiments per group. *p<0.05; **p<0.01 by two-tailed unpaired t test with Welch's correction compared to respective DMSO treatments.
Western blot analysis was performed on freshly isolated or expanded T cells. For Western blot protein degradation analysis, primary human T cells (2×10^7 cells/treatment) were re-suspended in RPMI media at 2×10^6 cells/mL and treated with the compounds or DMSO at 37° C. in a CO2 containing incubator for 24 h (or otherwise indicated times).

ITK = target: T1, ITK (Homo sapiens, UniProt Q08881); test: Western blot of ITK protein content in T cells; format: cell-based; details: MG132 10 μM
T1 construct: endogenous in cells; host or cells: primary human T cells (αCD3/CD28-stimulated, naïve or expanded)
T1 sequence (Q08881 1-620): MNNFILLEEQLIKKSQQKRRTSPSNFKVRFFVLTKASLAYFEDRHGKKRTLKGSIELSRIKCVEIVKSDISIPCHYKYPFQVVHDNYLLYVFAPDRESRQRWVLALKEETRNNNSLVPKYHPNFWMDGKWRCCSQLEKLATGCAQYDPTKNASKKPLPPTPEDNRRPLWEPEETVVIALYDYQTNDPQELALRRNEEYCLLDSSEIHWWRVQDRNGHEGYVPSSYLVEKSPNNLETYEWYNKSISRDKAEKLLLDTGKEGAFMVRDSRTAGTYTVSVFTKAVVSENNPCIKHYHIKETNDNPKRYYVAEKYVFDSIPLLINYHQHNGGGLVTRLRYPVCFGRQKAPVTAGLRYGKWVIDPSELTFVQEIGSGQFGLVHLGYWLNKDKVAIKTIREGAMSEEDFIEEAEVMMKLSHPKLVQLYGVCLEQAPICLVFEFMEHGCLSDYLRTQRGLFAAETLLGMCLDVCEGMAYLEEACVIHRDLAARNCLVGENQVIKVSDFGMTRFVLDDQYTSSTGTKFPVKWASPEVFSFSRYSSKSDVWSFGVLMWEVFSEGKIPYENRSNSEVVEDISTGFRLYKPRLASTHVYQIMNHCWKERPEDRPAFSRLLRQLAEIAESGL
Experimental: T cells were treated with DMSO or compounds (5 μM each) for 8 h. […] (F) Quantitation of western blot data, where protein band intensity calculations were made using ImageJ software and represent the mean percentage of DMSO-treated control±SD; n=2-5 independent experiments per group. **p<0.01 by two-tailed unpaired t test with Welch's correction compared to EV-97 treatment. […] Data are presented as the mean percentage of DMSO-treated control±SEM; n=4 independent experiments per group. ****p<0.0001 by two-tailed unpaired t test with Welch's correction compared to DMSO-treated stim control.
Results are from one experiment representative of 2-5 independent experiments. […] Cells were treated with compounds (5 μM each) or DMSO control for 8 h. Protein band intensity calculations were made using ImageJ software and represent the mean percentage of DMSO-treated control±SD; n=2-5 independent experiments per group. **p<0.01 by two-tailed unpaired t test with Welch's correction compared to DMSO-treated stim control. […] Cells treated with DMSO or EV-96 (5 μM) for 1-8 h. Results are from a single experiment representative of 2-4 independent experiments. […] Cells were treated with compounds (5 μM each) or DMSO for 8 h. Results are from one experiment representative of 2 independent experiments.

NuRD complex = test: Expression-based proteomics (TMT-exp) of compound-treated T cells, NuRD complex; format: cell-based, human; details: MG132 10 μM co-treatment, 24 h
Experimental: FIG. 7B is a scatter plot representation of protein abundance changes caused by BPK-25 (10 μM, 24 h) in two independent replicate experiments, with decreases in NuRD complex components highlighted in red. FIG. 7C is a heatmap of top proteins with decreased abundance in BPK-25-treated T cells showing that the subset of these proteins in the NuRD complex (asterisks) were largely unaltered by other active compounds and blocked in their degradation by co-treatment with the proteasome inhibitor MG132. […] FIG. 7E is a bar graph […] showing time-dependent reductions in NuRD complex members in human T cells treated with BPK-25 (10 μM). Left, representative western blots. Right, quantification of changes in protein. […] FIG. 7G is a heat map showing the changes in cysteine reactivity for NuRD complex members in human T cells treated with BPK-25 and other active compounds.
Freshly isolated T cells (1.6×10^7 cells, 2×10^6 cells/mL in RPMI media) were treated with compound or DMSO for 24 h, pelleted (600 g, 5 min), and washed with PBS (1×10 mL). The cells were then transferred to an Eppendorf tube in additional PBS (1 mL), pelleted (600 g, 5 min), flash frozen, and kept at −80° C. until further analysis. On the first day of the whole proteome TMT protocol, the cells were thawed on ice and lysed in lysis buffer (150 μL, 1 tablet of Roche complete, mini, EDTA-free Protease Inhibitor Cocktail dissolved in 10 mL of PBS) using a probe sonicator (2×8 pulses). Protein concentration was adjusted to 2.0 mg/mL and the samples (100 μL) were transferred to new Eppendorf tubes (1.5 mL) containing urea (48 mg/tube, final urea concentration: 8 M). DTT (5 μL, 200 mM fresh stock in H2O, final DTT concentration: 10 mM) was then added to the tubes and the samples were incubated at 65° C. for 15 min. Following this incubation, iodoacetamide (5 μL, 400 mM fresh stock in H2O, final IA concentration: 20 mM) was added and the samples were incubated in the dark at 37° C. with shaking for 30 min. Ice-cold MeOH (600 μL), CHCl3 (200 μL), and H2O (500 μL) were then added, the mixture was vortexed and centrifuged (10,000 g, 10 min, 4° C.) to afford a protein disc at the interface of CHCl3 and aqueous layers. The top layer was aspirated without perturbing the disk, additional MeOH (600 μL) was added and the proteins were pelleted (10,000 g, 10 min, 4° C.) and used in the next step or stored at −80° C. overnight.
The resulting protein pellets were resuspended in EPPS buffer (160 μL, 200 mM, pH 8) using a probe sonicator (2×6 pulses). […]
The sample became clear after the overnight digestion. At this point, peptide concentration was determined using microBCA assay (Thermo Scientific) according to manufacturer's instructions. […]

BIRC3 = target: T2, BIRC3 (Homo sapiens, UniProt Q13489); test: Western blot of BIRC3 content in human T cells; format: cell-based; details: MG132 10 μM with EV-3, 24 h
T2 construct: endogenous in cells; host or cells: primary human T cells

ERCC3 = target: T3, ERCC3 (Homo sapiens, UniProt P19447); test: isoTOP-ABPP and TMT-ABPP cysteine engagement, ERCC3; format: binding
T3 construct: endogenous in cells; host or cells: primary human T cells
T3 sequence (P19447 1-782): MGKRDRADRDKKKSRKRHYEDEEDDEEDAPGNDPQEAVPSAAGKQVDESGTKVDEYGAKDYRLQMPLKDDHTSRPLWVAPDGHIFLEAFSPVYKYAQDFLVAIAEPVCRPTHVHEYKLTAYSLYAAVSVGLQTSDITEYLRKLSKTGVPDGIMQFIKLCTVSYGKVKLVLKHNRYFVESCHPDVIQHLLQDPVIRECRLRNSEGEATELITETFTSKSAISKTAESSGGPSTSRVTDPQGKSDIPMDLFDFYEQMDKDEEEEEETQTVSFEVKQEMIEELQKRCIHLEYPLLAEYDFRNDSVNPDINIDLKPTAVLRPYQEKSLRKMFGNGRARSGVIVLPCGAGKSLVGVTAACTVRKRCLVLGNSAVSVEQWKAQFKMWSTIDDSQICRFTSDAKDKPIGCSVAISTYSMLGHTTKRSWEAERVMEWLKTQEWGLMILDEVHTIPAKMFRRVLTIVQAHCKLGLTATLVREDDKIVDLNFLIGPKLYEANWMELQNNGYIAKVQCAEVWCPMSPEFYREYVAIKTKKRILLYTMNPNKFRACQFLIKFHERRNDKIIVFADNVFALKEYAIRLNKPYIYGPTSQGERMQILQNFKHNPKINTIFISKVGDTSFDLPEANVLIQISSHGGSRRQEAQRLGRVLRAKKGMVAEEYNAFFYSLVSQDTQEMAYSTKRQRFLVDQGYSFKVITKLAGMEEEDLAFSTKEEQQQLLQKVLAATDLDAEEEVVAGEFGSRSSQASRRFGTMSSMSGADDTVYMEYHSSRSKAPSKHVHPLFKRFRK
Experimental: Activated or expanded T cells were re-suspended in RPMI media supplemented with 10% FBS, L-glutamine (2 mM), penicillin (100 U/mL), and streptomycin (100 μg/mL) at 2×10^6 cells/mL. The compounds were added to cells as 1000×DMSO stocks and mixed well with the media by pipetting up and down after addition. The cells were kept at 37° C. in 5% CO2 containing incubators for 3 h (or otherwise specified times), then pelleted by centrifugation (524 g, 5 min, 4° C.), washed with cold PBS (10 mL) and transferred to Eppendorf tubes (1 mL PBS). The cells were pelleted again (524 g, 5 min, 4° C.), flash-frozen, and kept at −80° C. until further analysis.
Activated or expanded primary human T cells were re-suspended in RPMI (1×10^6 cells/mL) containing 10% fetal bovine serum (FBS), penicillin (100 U/mL), streptomycin ([…]), and L-glutamine (2 mM). The cells were treated with DMSO or compounds for 3 h, pelleted (524 g, 5 min), washed with PBS, and lysed by sonication (2×8 pulses). Soluble and particulate proteomic fractions were separated by ultracentrifugation (100,000 g, 45 min), and protein concentration was normalized to 1.7 mg/mL using a standard DC protein assay (Bio-Rad). The resulting proteomes were analyzed by competitive isotopic Tandem Orthogonal Proteolysis Activity-Based Protein Profiling (isoTOP-ABPP).
Samples (500 μL, 1.7 mg/mL) were treated with iodoacetamide alkyne (IA-alkyne, 5 μL of 10 mM stock in DMSO, final concentration: 100 μM) for 1 h at ambient temperature. Modified proteins were then conjugated to isotopically labeled, TEV-cleavable biotin tags (TEV-tags) using copper-catalyzed azide-alkyne cycloaddition reaction (CuAAC). Reagents for the CuAAC reaction were pre-mixed prior to their addition to the proteome samples. […]
The heavy/light isoTOP-ABPP ratios (R values) for each unique peptide (DMSO/compound treated) were quantified with in-house CIMAGE software (Weerapana et al., 2010) using default parameters (3 MS1 acquisitions per peak and signal to noise threshold set to 2.5). Site-specific engagement of cysteine residues was assessed by blockade of IA-alkyne probe labeling. […] Ratios for unique peptide sequences were calculated for each experiment; overlapping peptides with the same modified cysteine (e.g., different charge states, elution times or tryptic termini) were grouped together and the median ratio was reported as the final ratio (R). […]

NF-κB = details: cited from earlier work
primary human T cells = details: cited from earlier work

Chain of BIRC2 (Q13490 whole entry): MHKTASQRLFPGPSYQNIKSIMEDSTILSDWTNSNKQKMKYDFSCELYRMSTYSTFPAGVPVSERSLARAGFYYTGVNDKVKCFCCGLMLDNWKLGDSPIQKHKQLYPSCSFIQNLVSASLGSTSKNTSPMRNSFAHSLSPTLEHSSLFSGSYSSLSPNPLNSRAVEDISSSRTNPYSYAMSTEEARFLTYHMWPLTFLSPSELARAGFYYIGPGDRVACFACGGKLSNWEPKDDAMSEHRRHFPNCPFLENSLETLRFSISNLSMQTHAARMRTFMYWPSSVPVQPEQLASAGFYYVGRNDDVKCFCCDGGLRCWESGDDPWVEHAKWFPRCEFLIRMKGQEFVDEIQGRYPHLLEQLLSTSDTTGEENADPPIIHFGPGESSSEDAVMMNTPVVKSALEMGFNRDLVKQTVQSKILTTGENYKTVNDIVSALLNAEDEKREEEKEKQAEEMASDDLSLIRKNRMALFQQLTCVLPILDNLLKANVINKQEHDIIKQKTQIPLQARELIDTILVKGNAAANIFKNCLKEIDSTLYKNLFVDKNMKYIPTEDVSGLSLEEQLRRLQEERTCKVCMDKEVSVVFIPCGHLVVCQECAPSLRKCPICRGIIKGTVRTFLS
T2 sequence (Q13489 whole entry): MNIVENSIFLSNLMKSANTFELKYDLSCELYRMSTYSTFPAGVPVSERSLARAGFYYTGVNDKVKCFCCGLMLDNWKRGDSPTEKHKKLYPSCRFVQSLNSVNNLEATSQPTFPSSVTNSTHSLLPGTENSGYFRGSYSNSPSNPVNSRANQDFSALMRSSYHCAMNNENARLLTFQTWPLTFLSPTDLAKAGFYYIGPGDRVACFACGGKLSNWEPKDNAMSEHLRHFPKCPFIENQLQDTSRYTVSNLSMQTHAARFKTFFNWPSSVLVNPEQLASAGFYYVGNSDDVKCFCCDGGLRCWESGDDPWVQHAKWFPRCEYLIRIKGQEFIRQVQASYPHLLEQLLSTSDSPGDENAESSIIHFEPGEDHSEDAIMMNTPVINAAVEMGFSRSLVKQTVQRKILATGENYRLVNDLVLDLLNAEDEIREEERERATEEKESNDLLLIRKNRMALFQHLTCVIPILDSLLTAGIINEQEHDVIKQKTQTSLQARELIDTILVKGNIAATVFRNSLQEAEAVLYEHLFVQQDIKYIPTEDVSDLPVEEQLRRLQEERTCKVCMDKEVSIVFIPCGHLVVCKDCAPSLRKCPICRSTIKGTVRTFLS

Compound | effect on EV-3-induced loss of BIRC2 (BIRC2) | effect on EV-96-mediated loss of ITK (co-treatment) (ITK) | effect on BPK-25-mediated reductions in NuRD complex proteins (NuRD complex) | effect on EV-3-induced loss of BIRC3 (BIRC3) | engagement of C342 of ERCC3 (ERCC3) | NF-κB DNA binding activity (has been shown) (NF-κB) | effect on T cell activation (has been shown) (primary human T cells)
CC(C)C[C@@H](C=O)NC(=O)[C@H](CC(C)C)NC(=O)[C@H](CC(C)C)NC(=O)OCc1ccccc1 [MG132, reference compound] (Cbz-Leu-Leu-Leu-aldehyde) | blocks | blocked | blocked | blocks |  |  | 
CC(C)[C@]12O[C@H]1[C@@H]1O[C@]13[C@]1(O[C@H]1C[C@H]1C4=C(CC[C@@]13C)C(=O)OC4)[C@@H]2O [triptolide] |  |  |  |  | also targeted | without blocking | impair T cell activation
